From ChEMBL document CHEMBL1201862, “PubChem BioAssay data set” (2004) come the findings set out here.

Among the test systems are SK-MEL-2; HOP-92; UACC-257; IGROV-1; NCI-H23; HCT-15; PC-3; HCC 2998; EKVX; SK-MEL-28; SK-OV-3; MDA-MB-435; A549; Hs-578T; K562; 786-0; T47D; OVCAR-4; MDA-MB-231.
Common to all, as to test: NCI anticancer screen, dose series, 48 h

Structures are written as SMILES.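 Test compounds were applied to cells in 96-well plates for 48 hours at 5 doses. GI50 = concentration required for 50% inhibition of growth.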 Active and inactive are the calls of the source. Cut-off read from the data, not from the text of the source: active = GI50 up to about 1.1 µM and inactive = higher.

As for `C[C@H](N)C(=O)Nc1ccc(-c2nc3ccccc3s2)cc1Cl`, the GI50 is 15.7 µM (inactive) in the assay on SK-MEL-2; 33.1 µM (inactive) in the assay with HOP-92; 18.6 µM (inactive) with UACC-257; 0.165 µM (active) with IGROV-1; 16.5 µM (inactive) with NCI-H23; 19.6 µM with HCT-15. In addition, the GI50 was 13.8 µM (inactive) with PC-3; 0.56 µM (active) in the assay with HCC 2998; 11.9 µM (inactive) with EKVX; 14 µM (inactive) in the assay with SK-MEL-28; 16.4 µM (inactive) in the assay on SK-OV-3; 13.6 µM (inactive) in the assay on MDA-MB-435. Moreover, the GI50 with A549 was 13.3 µM (inactive); with Hs-578T, 20.1 µM (inactive); in the assay with K562 it was 17.1 µM (inactive); in the assay on 786-0 it was 12.5 µM (inactive).

On to `COc1ccc(N[C@H](C[S+]([O-])c2ccc(C)cc2)C(F)(F)F)cc1` (some centres undefined), for which the GI50 in the assay with SK-MEL-2 is > 100 µM (inactive); in the assay with HOP-92, > 100 µM (inactive); with UACC-257, > 100 µM (inactive); in the assay with IGROV-1 it was > 100 µM (inactive); with NCI-H23 it was > 100 µM (inactive); in the assay with HCT-15, above 100 µM. Also, the GI50 in the assay on PC-3, in the assay on T47D, with HCC 2998, with OVCAR-4, with EKVX and in the assay with SK-MEL-28 was > 100 µM (inactive) each time. Further, the GI50 in the assay on MDA-MB-231, with SK-OV-3, in the assay on MDA-MB-435, in the assay with A549, with K562 and with 786-0 was > 100 µM (inactive) throughout.

For `C=C(C)[C@@]1(OC(=O)c2cc([N+](=O)[O-])cc([N+](=O)[O-])c2)C[C@@H]2CCCC[C@@H]21`, the GI50 was 58.3 µM (inactive) in the assay with SK-MEL-2; > 100 µM (inactive) in the assay on UACC-257; > 100 µM (inactive) in the assay on IGROV-1; > 100 µM (inactive) in the assay on NCI-H23; above 100 µM with HCT-15; > 100 µM (inactive) in the assay with PC-3. Also, the GI50 was > 100 µM (inactive) in the assay on T47D; 59.6 µM (inactive) in the assay on HCC 2998; 56.2 µM (inactive) in the assay with OVCAR-4; 37.2 µM (inactive) with EKVX; > 100 µM (inactive) in the assay with SK-MEL-28; > 100 µM (inactive) in the assay with MDA-MB-231. Besides, the GI50 in the assay with SK-OV-3 is > 100 µM (inactive); with A549, 39.4 µM (inactive); in the assay with Hs-578T it was > 100 µM (inactive); in the assay with K562, > 100 µM (inactive); in the assay on 786-0, > 100 µM (inactive).

`ClCCN1CCC2(CC1)SSC1(CCN(CCCl)CC1)S2`: the GI50 in the assay with SK-MEL-2 is > 100 µM (inactive); in the assay on HOP-92, 1.79 µM (inactive); in the assay on UACC-257, > 100 µM (inactive); in the assay with IGROV-1, 74 µM (inactive); with NCI-H23, 49.7 µM (inactive); with HCT-15, 36.2 µM. In addition, the GI50 in the assay with PC-3 is 30.1 µM (inactive); in the assay with OVCAR-4, 35.2 µM (inactive); with SK-MEL-28 it was > 100 µM (inactive); in the assay with MDA-MB-231, 57.5 µM (inactive); in the assay on SK-OV-3, 30.6 µM (inactive); in the assay with MDA-MB-435 it was 73.6 µM (inactive). In addition, the GI50 with A549 is 89.9 µM (inactive); in the assay with Hs-578T, 45.1 µM (inactive); in the assay on K562, 37.8 µM (inactive); with 786-0, 36.7 µM (inactive).

`NC(=O)N/N=C(\Cc1cc(=O)oc2cc(O)ccc12)C(=O)Nc1ccccc1C(N)=O`: the GI50 with SK-MEL-2 was > 100 µM (inactive); in the assay on HOP-92, > 100 µM (inactive); with UACC-257, > 100 µM (inactive); in the assay on IGROV-1, > 100 µM (inactive); in the assay with NCI-H23, > 100 µM (inactive); in the assay with HCT-15, above 100 µM. The GI50 in the assay with PC-3 was > 100 µM (inactive); with HCC 2998 it was 61 µM (inactive); in the assay on OVCAR-4, > 100 µM (inactive); in the assay on EKVX, > 100 µM (inactive); in the assay on SK-MEL-28 it was > 100 µM (inactive); in the assay on MDA-MB-231, > 100 µM (inactive). Moreover, the GI50 in the assay on SK-OV-3, in the assay with MDA-MB-435, with A549, in the assay on Hs-578T and in the assay with 786-0 was > 100 µM (inactive) each time.

As to `COc1ccc(C[C@@H](CO)NC2=C(C#N)CCC2)cc1`, the GI50 with SK-MEL-2 is > 100 µM (inactive); with HOP-92 it was 43.5 µM (inactive); in the assay with UACC-257, 34.6 µM (inactive); with NCI-H23, 52.4 µM (inactive); in the assay with HCT-15, 40.4 µM; with PC-3, 32.3 µM (inactive). Further, the GI50 in the assay on HCC 2998 was 19.6 µM (inactive); with OVCAR-4, 32.1 µM (inactive); with EKVX it was 35.7 µM (inactive); in the assay with SK-MEL-28, 74.1 µM (inactive); with MDA-MB-231 it was 15.1 µM (inactive); with SK-OV-3, 49.1 µM (inactive). In addition, the GI50 was 48 µM (inactive) with MDA-MB-435; 86.7 µM (inactive) with A549; 20 µM (inactive) with Hs-578T; 33.4 µM (inactive) in the assay with K562; 64.1 µM (inactive) in the assay on 786-0.

Turning to `N#Cc1cc2c(n(C3OC(CO)C(O)C(O)C3O)c1=S)CCCCC2` (centres undefined), the GI50 in the assay with SK-MEL-2 is > 100 µM (inactive); in the assay with HOP-92, > 100 µM (inactive); in the assay on UACC-257, > 100 µM (inactive); in the assay with IGROV-1, > 100 µM (inactive); in the assay with NCI-H23, > 100 µM (inactive); in the assay with HCT-15, above 100 µM. In addition, the GI50 with PC-3, with HCC 2998, in the assay with OVCAR-4, with SK-MEL-28, with MDA-MB-231 and in the assay with MDA-MB-435 was > 100 µM (inactive) in each case. In addition, the GI50 with A549, in the assay on Hs-578T, with K562 and with 786-0 was > 100 µM (inactive) each time.

Turning to `O=c1c(F)cn2c(=O)n1CCCCCCCn1c(=O)c(F)cn(c1=O)CCCCCCC2`, the GI50 with SK-MEL-2 is > 100 µM (inactive); in the assay on HOP-92 it was 57.7 µM (inactive); in the assay with UACC-257 it was 36.4 µM (inactive); in the assay with IGROV-1, > 100 µM (inactive); in the assay on NCI-H23, > 100 µM (inactive); in the assay on HCT-15, above 100 µM. The GI50 is > 100 µM (inactive) in the assay on PC-3; > 100 µM (inactive) with T47D; > 100 µM (inactive) in the assay with HCC 2998; 30.1 µM (inactive) in the assay on OVCAR-4; > 100 µM (inactive) in the assay with EKVX; 3.13 µM (inactive) in the assay with SK-MEL-28. Further, the GI50 is 34 µM (inactive) with MDA-MB-231; > 100 µM (inactive) in the assay with SK-OV-3; 64.9 µM (inactive) in the assay on MDA-MB-435; > 100 µM (inactive) in the assay with A549; > 100 µM (inactive) in the assay with K562; 40.7 µM (inactive) in the assay on 786-0.

In the case of `CCOC(=O)[C@@H]1ON2O[C@H](OC3CCCC3(c3ccccc3)c3ccccc3)C[C@H]3OC(=O)[C@@H]1C32` (some centres undefined), the GI50 was 95.7 µM (inactive) in the assay on HOP-92; 52.4 µM (inactive) in the assay on UACC-257; 33.7 µM (inactive) in the assay on IGROV-1; 27 µM (inactive) in the assay on NCI-H23; 48.3 µM in the assay on HCT-15; 26.1 µM (inactive) in the assay with T47D. Besides, the GI50 in the assay on HCC 2998 was 52.1 µM (inactive); in the assay with EKVX, > 100 µM (inactive); in the assay with MDA-MB-231, 36.6 µM (inactive); with SK-OV-3, > 100 µM (inactive); in the assay with MDA-MB-435 it was 30.1 µM (inactive); in the assay on A549, 27.8 µM (inactive). The GI50 with Hs-578T was 49.4 µM (inactive); in the assay with K562, 41.2 µM (inactive); with 786-0, 78 µM (inactive).

In the case of `C1=C2SSC3=CC=C(SSc4ccc(s4)SSC4=CC=C(SSC(=C1)S2)S4)S3`, the GI50 was > 100 µM (inactive) with SK-MEL-2; > 100 µM (inactive) with HOP-92; > 100 µM (inactive) with UACC-257; > 100 µM (inactive) with IGROV-1; > 100 µM (inactive) with NCI-H23; above 100 µM in the assay on HCT-15. In addition, the GI50 with PC-3, with T47D, in the assay with HCC 2998, with OVCAR-4, in the assay with EKVX and in the assay with SK-MEL-28 was > 100 µM (inactive) throughout. In addition, the GI50 in the assay with MDA-MB-231, in the assay on SK-OV-3, in the assay on MDA-MB-435, in the assay on A549, in the assay on K562 and in the assay on 786-0 was > 100 µM (inactive) throughout.

Take `COC(NC(=O)Nc1ccccc1C)(C(F)(F)F)C(F)(F)F`: the GI50 in the assay on HOP-92 was > 100 µM (inactive); with IGROV-1, > 100 µM (inactive); in the assay on NCI-H23, 81.5 µM (inactive); in the assay with PC-3, 56.4 µM (inactive); in the assay with T47D it was 22.4 µM (inactive); in the assay on HCC 2998, > 100 µM (inactive). The GI50 in the assay on OVCAR-4, in the assay with SK-MEL-28, in the assay on SK-OV-3, in the assay on MDA-MB-435, in the assay with A549 and with Hs-578T was > 100 µM (inactive) in each case. The values for the GI50 in the assay on K562 and in the assay on 786-0 were 77.1 µM (inactive) and > 100 µM (inactive), respectively.

With `COc1ccc(/C=C\c2cc(OC)c(OC)c(OC)c2)cc1OC(=O)CCC(=O)O`, the GI50 with SK-MEL-2 is 0.0126 µM (active); in the assay on UACC-257 it was > 10 µM (inactive); with IGROV-1, 0.000145 µM (active); in the assay with NCI-H23 it was 0.0119 µM (active); in the assay with HCT-15 it was below 0.0001 µM; in the assay on PC-3, < 0.0001 µM (active). In addition, the GI50 with T47D was 29.9 µM (inactive); in the assay on OVCAR-4, 36 µM (inactive); with EKVX, 0.0149 µM (active); in the assay on SK-MEL-28 it was < 0.01 µM (active); with MDA-MB-231, < 0.0001 µM (active); in the assay on SK-OV-3 it was 0.000895 µM (active). For the same compound, the GI50 in the assay with MDA-MB-435 is < 0.0001 µM (active); in the assay on A549 it was 0.000655 µM (active); with Hs-578T, < 0.01 µM (active); in the assay on K562, < 0.0001 µM (active); with 786-0 it was 0.000263 µM (active).
